Experimental findings from ChEMBL document CHEMBL3991601, “The target landscape of clinical kinase drugs” (Science, 2017) are described below.

Active and inactive are the calls of the source. Rule as the data show it, for most assays here: actives have a measured Kd and inactives only a lower limit.

For assay [1], the target named is T1, Peroxisomal acyl-coenzyme A oxidase 1 (Homo sapiens, UniProt Q15067).
T1 sequence (Q15067 whole entry): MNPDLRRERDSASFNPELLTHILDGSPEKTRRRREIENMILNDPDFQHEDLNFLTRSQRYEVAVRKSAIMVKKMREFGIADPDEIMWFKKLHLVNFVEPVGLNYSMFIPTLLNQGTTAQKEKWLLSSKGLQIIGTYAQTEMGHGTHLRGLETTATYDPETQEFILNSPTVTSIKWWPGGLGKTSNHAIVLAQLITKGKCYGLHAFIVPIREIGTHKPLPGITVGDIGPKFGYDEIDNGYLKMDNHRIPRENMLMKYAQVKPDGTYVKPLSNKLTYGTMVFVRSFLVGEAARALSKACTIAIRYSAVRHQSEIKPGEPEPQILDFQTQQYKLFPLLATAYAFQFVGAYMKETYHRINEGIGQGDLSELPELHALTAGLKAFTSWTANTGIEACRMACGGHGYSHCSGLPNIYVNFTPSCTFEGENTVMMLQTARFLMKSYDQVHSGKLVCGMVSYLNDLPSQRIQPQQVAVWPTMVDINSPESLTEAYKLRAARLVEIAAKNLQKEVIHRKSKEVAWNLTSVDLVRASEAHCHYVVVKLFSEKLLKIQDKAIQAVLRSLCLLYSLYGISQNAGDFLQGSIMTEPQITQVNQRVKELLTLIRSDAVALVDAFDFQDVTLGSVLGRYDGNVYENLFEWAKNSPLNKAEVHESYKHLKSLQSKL

Assay [2] concerns the target Atypical kinase COQ8A, mitochondrial (Homo sapiens, UniProt Q8NI60).
The target of assay [3] is T2, Bone morphogenetic protein receptor type-2 (Homo sapiens, UniProt Q13873).
T2 sequence (Q13873 whole entry): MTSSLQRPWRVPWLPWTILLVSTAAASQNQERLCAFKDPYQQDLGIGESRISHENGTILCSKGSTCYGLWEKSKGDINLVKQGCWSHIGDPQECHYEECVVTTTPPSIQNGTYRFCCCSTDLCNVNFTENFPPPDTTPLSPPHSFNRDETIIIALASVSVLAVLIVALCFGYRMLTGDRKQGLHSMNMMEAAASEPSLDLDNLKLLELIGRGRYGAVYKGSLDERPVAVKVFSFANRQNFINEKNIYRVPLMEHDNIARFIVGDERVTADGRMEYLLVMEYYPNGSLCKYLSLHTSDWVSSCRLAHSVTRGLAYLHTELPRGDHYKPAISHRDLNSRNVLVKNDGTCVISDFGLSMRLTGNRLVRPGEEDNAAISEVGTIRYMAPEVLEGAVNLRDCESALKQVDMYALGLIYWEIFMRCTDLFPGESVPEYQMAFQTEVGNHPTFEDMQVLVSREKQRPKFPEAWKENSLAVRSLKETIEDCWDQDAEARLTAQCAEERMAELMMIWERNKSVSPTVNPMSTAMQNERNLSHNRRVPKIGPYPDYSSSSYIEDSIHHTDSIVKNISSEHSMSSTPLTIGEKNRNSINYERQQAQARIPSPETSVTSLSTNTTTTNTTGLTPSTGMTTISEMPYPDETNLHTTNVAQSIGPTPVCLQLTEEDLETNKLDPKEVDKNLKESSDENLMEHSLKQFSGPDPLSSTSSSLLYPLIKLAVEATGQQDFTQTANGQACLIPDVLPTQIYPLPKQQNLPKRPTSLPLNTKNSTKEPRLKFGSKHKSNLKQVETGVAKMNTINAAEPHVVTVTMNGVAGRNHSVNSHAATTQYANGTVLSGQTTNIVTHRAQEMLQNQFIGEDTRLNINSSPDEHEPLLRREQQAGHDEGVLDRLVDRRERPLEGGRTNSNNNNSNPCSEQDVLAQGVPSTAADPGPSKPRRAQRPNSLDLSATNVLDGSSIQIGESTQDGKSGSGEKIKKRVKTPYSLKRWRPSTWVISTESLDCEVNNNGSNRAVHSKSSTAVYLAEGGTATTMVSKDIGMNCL

Assay [4] addresses Casein kinase I isoform epsilon (Homo sapiens, UniProt P49674).
Assay [5] concerns the target Casein kinase II subunit alpha' (Homo sapiens, UniProt P19784).
The target in a further assay is Ephrin type-A receptor 4 (Homo sapiens, UniProt P54764).
Assay [6] concerns the target T3, Electron transfer flavoprotein subunit beta (Homo sapiens, UniProt P38117).
T3 sequence (P38117 whole entry): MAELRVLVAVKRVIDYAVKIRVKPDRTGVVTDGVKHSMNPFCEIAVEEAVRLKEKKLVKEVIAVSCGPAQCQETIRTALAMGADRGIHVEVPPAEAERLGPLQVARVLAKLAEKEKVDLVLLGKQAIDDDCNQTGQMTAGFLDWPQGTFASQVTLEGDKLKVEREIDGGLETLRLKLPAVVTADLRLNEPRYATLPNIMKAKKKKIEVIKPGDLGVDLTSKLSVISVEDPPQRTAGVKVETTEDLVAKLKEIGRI

Assay [7] deals with Mitogen-activated protein kinase kinase kinase kinase 5 (Homo sapiens, UniProt Q9Y4K4).
Assay [8] concerns the target T4, Mitogen-activated protein kinase 15 (Homo sapiens, UniProt Q8TD08).
T4 sequence (Q8TD08 whole entry): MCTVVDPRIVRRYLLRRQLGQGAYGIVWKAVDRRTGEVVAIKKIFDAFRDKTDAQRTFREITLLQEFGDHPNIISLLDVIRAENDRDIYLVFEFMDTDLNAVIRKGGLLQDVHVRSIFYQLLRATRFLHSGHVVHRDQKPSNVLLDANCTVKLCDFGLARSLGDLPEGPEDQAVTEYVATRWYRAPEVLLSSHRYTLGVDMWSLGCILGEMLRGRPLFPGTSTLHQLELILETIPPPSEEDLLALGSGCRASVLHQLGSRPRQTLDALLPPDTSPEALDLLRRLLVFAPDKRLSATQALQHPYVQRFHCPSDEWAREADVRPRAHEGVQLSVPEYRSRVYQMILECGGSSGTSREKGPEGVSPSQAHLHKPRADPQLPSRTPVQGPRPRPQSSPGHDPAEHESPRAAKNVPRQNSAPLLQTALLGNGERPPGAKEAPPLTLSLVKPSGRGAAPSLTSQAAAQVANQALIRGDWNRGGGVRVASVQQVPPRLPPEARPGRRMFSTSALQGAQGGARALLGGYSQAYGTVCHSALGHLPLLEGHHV
Also: in the data inactive means no Kd found up to 30 µM.

Chain of Casein kinase I isoform epsilon (P49674 whole entry, canonical isoform): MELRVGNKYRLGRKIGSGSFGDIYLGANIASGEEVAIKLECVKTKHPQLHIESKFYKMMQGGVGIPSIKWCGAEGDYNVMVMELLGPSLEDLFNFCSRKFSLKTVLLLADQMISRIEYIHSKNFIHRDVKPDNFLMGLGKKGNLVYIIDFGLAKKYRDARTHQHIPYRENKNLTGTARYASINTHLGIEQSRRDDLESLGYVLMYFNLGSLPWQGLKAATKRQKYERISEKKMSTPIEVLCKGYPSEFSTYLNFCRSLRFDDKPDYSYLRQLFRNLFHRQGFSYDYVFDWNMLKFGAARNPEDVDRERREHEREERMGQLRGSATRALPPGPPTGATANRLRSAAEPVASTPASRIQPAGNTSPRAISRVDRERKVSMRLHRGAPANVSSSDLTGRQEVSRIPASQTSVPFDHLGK
Chain of Mitogen-activated protein kinase kinase kinase kinase 5 (Q9Y4K4 whole entry): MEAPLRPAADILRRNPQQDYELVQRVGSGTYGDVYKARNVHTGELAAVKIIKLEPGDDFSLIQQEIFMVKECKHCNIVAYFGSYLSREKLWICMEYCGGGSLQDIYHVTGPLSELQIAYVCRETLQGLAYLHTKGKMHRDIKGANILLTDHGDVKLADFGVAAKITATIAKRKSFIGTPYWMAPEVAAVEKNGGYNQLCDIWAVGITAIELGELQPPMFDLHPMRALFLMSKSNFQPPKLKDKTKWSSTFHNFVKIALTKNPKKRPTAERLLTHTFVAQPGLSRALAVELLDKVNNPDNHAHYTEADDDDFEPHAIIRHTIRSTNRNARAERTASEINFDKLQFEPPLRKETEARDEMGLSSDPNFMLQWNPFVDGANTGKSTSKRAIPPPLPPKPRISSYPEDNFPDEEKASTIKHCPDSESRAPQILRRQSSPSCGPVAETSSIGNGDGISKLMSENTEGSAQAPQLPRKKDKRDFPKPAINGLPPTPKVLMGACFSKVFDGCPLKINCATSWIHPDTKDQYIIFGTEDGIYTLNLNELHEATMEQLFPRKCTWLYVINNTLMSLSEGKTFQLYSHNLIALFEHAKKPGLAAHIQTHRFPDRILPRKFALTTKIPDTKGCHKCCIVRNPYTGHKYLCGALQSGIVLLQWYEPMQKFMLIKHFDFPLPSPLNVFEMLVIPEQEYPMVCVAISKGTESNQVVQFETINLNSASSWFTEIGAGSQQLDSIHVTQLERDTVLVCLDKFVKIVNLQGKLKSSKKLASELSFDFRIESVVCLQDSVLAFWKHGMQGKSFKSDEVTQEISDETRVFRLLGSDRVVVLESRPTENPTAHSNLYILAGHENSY
Chain of Ephrin type-A receptor 4 (P54764 whole entry): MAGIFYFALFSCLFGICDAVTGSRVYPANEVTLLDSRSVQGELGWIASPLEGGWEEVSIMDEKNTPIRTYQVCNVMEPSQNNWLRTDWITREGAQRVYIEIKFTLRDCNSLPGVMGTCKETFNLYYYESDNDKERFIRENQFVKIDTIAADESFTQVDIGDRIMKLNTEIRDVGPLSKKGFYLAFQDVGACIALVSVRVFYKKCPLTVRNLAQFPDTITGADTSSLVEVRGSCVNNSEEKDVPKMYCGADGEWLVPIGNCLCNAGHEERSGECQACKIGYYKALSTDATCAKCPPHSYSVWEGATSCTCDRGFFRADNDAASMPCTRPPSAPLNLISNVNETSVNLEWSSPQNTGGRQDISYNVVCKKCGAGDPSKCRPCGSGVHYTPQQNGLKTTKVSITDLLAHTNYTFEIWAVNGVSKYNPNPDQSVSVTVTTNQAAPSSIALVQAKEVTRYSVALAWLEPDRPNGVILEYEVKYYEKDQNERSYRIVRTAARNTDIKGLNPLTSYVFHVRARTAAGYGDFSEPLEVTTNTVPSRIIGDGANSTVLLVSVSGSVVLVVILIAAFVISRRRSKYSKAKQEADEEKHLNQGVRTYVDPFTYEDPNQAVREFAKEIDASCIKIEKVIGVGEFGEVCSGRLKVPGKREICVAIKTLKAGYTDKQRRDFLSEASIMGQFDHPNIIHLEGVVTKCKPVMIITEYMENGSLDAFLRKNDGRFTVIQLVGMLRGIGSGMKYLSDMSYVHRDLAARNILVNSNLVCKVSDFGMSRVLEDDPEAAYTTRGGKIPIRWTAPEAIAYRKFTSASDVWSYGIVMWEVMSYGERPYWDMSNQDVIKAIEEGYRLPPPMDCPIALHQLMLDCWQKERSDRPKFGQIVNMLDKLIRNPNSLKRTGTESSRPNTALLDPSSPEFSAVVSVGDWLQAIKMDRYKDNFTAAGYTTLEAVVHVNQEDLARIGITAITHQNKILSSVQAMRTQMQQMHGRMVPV
Chain of Casein kinase II subunit alpha' (P19784 whole entry): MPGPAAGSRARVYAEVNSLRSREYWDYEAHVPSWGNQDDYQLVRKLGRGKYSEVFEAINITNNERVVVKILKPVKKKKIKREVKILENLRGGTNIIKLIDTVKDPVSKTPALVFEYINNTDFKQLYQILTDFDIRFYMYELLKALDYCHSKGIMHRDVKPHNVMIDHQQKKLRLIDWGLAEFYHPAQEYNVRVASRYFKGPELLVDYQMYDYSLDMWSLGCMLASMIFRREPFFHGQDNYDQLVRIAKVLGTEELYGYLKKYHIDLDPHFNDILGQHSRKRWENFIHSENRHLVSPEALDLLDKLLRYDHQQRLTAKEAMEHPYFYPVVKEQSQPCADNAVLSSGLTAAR
Chain of Atypical kinase COQ8A, mitochondrial (Q8NI60 whole entry): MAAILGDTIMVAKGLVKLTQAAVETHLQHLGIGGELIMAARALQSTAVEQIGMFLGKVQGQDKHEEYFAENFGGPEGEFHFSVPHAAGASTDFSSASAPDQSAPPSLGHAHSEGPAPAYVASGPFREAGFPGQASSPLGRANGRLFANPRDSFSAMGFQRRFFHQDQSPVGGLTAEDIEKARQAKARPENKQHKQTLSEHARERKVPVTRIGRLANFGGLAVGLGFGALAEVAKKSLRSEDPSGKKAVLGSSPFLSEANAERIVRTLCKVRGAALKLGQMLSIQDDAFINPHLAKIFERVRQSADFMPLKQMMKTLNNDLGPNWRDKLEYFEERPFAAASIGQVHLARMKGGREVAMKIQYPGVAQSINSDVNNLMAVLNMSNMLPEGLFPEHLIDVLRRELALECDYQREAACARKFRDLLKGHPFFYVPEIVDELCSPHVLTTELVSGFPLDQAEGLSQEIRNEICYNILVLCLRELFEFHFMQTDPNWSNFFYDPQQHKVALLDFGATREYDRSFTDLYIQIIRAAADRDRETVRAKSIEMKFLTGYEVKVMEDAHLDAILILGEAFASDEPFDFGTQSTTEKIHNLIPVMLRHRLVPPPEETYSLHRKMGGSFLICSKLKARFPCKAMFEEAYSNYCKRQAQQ

For orientation: Kd means the constant that tells how readily two partners part at equilibrium. As to `C#Cc1cccc(Nc2ncnc3cc4c(cc23)OCCOCCOCCO4)c1` [ICOTINIB], the Kd (in [1]; in assay [2]; in assay [3]; in assay [4]; in assay [5]; at Ephrin type-A receptor 4) was > 30 µM (inactive) each time. The Kd in assay [6], in assay [7] and in assay [8] was > 30 µM (inactive) in each case.

As to `CNC(=O)c1cc(COc2nnc(Nc3ccc(Cl)cc3)c3ccoc23)ccn1` [TELATINIB], the Kd (in assay [1]; in [2]; in assay [3]; in assay [4]; in assay [5]; on Ephrin type-A receptor 4) was > 30 µM (inactive) throughout. Moreover, the Kd in assay [6], in [7] and in [8] was > 30 µM (inactive) in each case.

For the compound `COc1cc2ncnc3c2cc1OCCCCCN(C)Cc1ccc(Br)cc1N3` [JNJ-26483327], the Kd (in [1]; in [2]; in [3]; in [4]; in [5]; on Ephrin type-A receptor 4) was > 30 µM (inactive) throughout. In addition, the Kd in assay [6], in assay [7] and in [8] was > 30 µM (inactive) throughout.

Consider `CNC(=O)c1cccc(-c2ccc3c(N4CCOC[C@@H]4C)nc(N4CCOC[C@@H]4C)nc3n2)c1` [VISTUSERTIB], for which the Kd (in assay [1]; in assay [2]; in assay [3]; in assay [4]; in [5]; on Ephrin type-A receptor 4) was > 30 µM (inactive) throughout. Besides, the Kd in [6], in assay [7] and in assay [8] was > 30 µM (inactive) each time.

As to `CC1(COc2ccc3c(c2)ncn3-c2ccc3cccc(N4CCC(N)CC4)c3n2)COC1` [CRENOLANIB], the Kd (in assay [1]; in assay [2]; in assay [3]; in [4]; in [5]; at Ephrin type-A receptor 4) was > 30 µM (inactive) throughout. For the same compound, the Kd was 0.012 µM in [6], 0.455 µM (active) in assay [7] and > 30 µM (inactive) in [8].

For `NC(=O)c1ccc(N(C(N)=O)c2c(F)cccc2F)nc1-c1ccc(F)cc1F` [VX-702], the Kd (in assay [1]; in assay [2]; in assay [3]; in assay [4]; in [5]; at Ephrin type-A receptor 4) was > 30 µM (inactive) in each case. Besides, the Kd in assay [6], in [7] and in assay [8] was > 30 µM (inactive) each time.

`COc1ccc(-c2ccc3ncc4c(c3c2)n(-c2ccc(N3CCNCC3)c(C(F)(F)F)c2)c(=O)n4C)cn1` [BGT-226 FREE BASE]: the Kd was > 30 µM (inactive) in assay [1]; > 30 µM (inactive) in assay [2]; > 30 µM (inactive) in assay [3]; > 30 µM (inactive) in assay [4]; 8.49 µM (active) in [5]; > 30 µM (inactive) on Ephrin type-A receptor 4. Besides, the Kd in assay [6], in assay [7] and in [8] was > 30 µM (inactive) each time.

`CCN(CCCOc1ccc2c(Nc3cc(CC(=O)Nc4cccc(F)c4)n[nH]3)ncnc2c1)CCOP(=O)(O)O` [BARASERTIB]: the Kd in assay [1] was > 30 µM (inactive); in assay [2] it was > 30 µM (inactive); in [3], > 30 µM (inactive); in assay [4] it was > 30 µM (inactive); in assay [5] it was 1.95 µM; at Ephrin type-A receptor 4, > 30 µM (inactive). The Kd in assay [6] was > 30 µM (inactive); in assay [7] it was 2.24 µM (active); in assay [8], > 30 µM (inactive).
